Source: patent US20050038070A1, “Asthma and allergic inflammation modulators” (AMGEN INC., priority 2003, published 2005)

Each compound was assayed against T1, human CRTH2 (Homo sapiens, UniProt Q9Y5Y4) (assay: Human CRTH2 binding assay (3H-PGD2 binding, 293(124) cells)). Conditions: 3H-PGD2 binding to 293(124) cells stably expressing human CRTH2.
T1 construct: Full-length human CRTH2 cDNA was generated by polymerase chain reaction (PCR); expressed in transfected cells; host or cells: 293 cells stably transfected with pHLT124 (pcDNA3.1(+)), G418-selected; named 293(124)
T1 sequence (Q9Y5Y4 1-395): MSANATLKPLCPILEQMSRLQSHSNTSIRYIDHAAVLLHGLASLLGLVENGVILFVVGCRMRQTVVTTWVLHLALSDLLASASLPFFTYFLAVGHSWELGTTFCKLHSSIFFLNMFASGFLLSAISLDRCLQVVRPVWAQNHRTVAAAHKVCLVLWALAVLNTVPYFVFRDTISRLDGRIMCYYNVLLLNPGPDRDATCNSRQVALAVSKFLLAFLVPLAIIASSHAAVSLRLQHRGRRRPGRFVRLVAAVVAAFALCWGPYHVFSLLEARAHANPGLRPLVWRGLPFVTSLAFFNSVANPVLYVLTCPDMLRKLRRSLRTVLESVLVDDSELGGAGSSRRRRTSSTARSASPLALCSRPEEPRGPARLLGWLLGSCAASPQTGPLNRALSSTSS
Description: Human CRTH2 Binding Assay
Full-length human CRTH2 cDNA was generated by polymerase chain reaction (PCR) using human genomic DNA as template and subsequently cloned into pcDNA3.1(+) (Invitrogen), generating a CRTH2 expression plasmid pHLT124. The plasmid was transfected into 293 cells, which […] CRTH2, using LipofectAMINETM reagents (Gibco/BRL). G418 ([…]) was added to the culture 48 h after transfection and cells were maintained under selection for 3 weeks to ensure that all surviving cells stably expressed CRTH2. These cells are labeled as 293(124) hereafter.
^3H-PGD2 binding assay was performed using 293(124) cells. In brief, cells were washed and suspended in RPMI containing 0.5% BSA and 20 mM HEPES. Each assay contained 25,000 cells, appropriate amount of test compound when necessary and a mixture of 1 nM ^3H-PGD2 (Amersham Pharmacia Biotech) and 30 nM of unlabeled PGD2 (Cayman Chemicals) in […] final volume. The cell mixture was incubated at room temperature for 2.5 h with shaking and the cells were separated from free ^3H-PGD2 and transferred onto a filter plate using a cell harvester. Radioactivity bound to the cells was measured on a liquid scintillation counter. Nonspecific binding was determined in the presence of […] of unlabeled PGD2.

IC50 | Structure (SMILES)
< 40 nM | CC(=O)N(c1ccccc1)[C@H]1C[C@@H](C)N(C(=O)c2ccccc2)c2ccccc21 [Compound 3]
≥ 40 nM | CCCCC(=O)N(c1ccccc1)[C@H]1C[C@@H](C)N(C(=O)c2ccccc2)c2ccccc21 [Compound 4]
≥ 40 nM | CC(=O)N(c1ccc(Cl)cc1)[C@H]1C[C@@H](C)N(C(=O)c2ccc(Oc3ccccc3)cc2)c2ccccc21 [Compound 9]
≥ 40 nM | CC(=O)N[C@H]1C[C@@H](C)N(C(=O)c2ccccc2)c2ccccc21 [Compound 12]
